Structures are written as SMILES. pEC50: −log10 of the molar value.

The assay deals with human FXR (NR1H4) (Homo sapiens (Human), UniProt Q96RI1). In words: Human FXR (NR1H4) Assay (Gal4 promoter driven luciferase reporter, Indigo Bioscience kit IB00601). The class given is cell-based. The settings on record: for Efficacy (%): efficacy normalized to CDCA set as 100%; for pEC50: potency ranges. In short, it runs like this: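 CHO reporter cells expressing human FXR with Gal4-driven, FXR-responsive luciferase treated with compound doses (0.2% DMSO) for 22 hours at 37° C. Luciferase luminescence then measured as surrogate of FXR activation for potency and efficacy.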
Sequence of human FXR (NR1H4) (Q96RI1 whole entry, the tested form may be a part): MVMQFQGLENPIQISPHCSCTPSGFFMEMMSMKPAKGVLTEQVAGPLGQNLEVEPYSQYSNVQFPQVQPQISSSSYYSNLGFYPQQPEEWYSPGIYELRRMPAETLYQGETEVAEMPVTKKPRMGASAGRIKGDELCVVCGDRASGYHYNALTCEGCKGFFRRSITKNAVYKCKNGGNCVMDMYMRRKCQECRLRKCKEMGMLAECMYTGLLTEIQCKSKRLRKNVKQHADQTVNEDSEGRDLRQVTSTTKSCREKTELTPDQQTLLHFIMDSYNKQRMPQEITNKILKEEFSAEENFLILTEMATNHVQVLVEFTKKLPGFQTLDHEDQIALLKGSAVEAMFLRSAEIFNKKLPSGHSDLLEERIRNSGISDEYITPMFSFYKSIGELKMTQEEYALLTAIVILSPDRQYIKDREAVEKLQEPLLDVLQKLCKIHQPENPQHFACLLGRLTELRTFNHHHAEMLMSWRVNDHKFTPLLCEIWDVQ

With `CC[C@H]1[C@@H](O)[C@@H]2[C@H](CC[C@]3(C)[C@@H]([C@H](C)CCNC(=O)NS(=O)(=O)c4ccc(C(C)(C)C(=O)OC)cc4)CC[C@@H]23)[C@@]2(C)CC[C@@H](O)C[C@@H]12` [Example 70], the “Efficacy (%)” value is listed as 434% and the negative logarithm of the EC50 (pEC50) is over 7.00.

Consider `CC[C@H]1[C@@H](O)[C@@H]2[C@H](CC[C@]3(C)[C@@H]([C@H](C)CNC(=O)NS(=O)(=O)c4ccc5ccccc5c4)CC[C@@H]23)[C@@]2(C)CC[C@@H](O)C[C@@H]12` [Example 32], for which the “Efficacy (%)” value was determined as 309% and the pEC50 is over 7.00.

Turning to `CC[C@H]1[C@@H](O)[C@@H]2[C@H](CC[C@]3(C)[C@@H]([C@H](C)CCNC(=O)NS(=O)(=O)NC)CC[C@@H]23)[C@@]2(C)CC[C@@H](O)C[C@@H]12` [Example 125], the “Efficacy (%)” value is 256% and the negative logarithm of the EC50 (pEC50) was 5.00 to 6.00.

Take `CC[C@H]1[C@@H](O)[C@@H]2[C@H](CC[C@]3(C)[C@@H]([C@H](C)CCNC(=O)NS(=O)(=O)C4CCC(C(C)(C)C)CC4)CC[C@@H]23)[C@@]2(C)CC[C@@H](O)C[C@@H]12` (some centres unmarked) [Example 88]: the “Efficacy (%)” value amounted to 378% and the pEC50 is over 7.00.

Take `CC[C@H]1[C@@H](O)[C@@H]2[C@H](CC[C@]3(C)[C@@H]([C@H](C)CCNC(=O)NS(=O)(=O)C4CCC(C)(C)CC4)CC[C@@H]23)[C@@]2(C)CC[C@@H](O)C[C@@H]12` [Example 101]: the “Efficacy (%)” value is 244% and the negative logarithm of the EC50 (pEC50) is over 7.00.

In the case of `CC[C@H]1[C@@H](O)[C@@H]2[C@H](CC[C@]3(C)[C@@H]([C@H](C)CCNC(=O)NS(=O)(=O)N4CCOCC4)CC[C@@H]23)[C@@]2(C)CC[C@@H](O)C[C@@H]12` [Example 37], the “Efficacy (%)” value turned out to be 254% and the negative-log EC50 (pEC50) was over 7.00.

Consider `CC[C@H]1[C@@H](O)[C@@H]2[C@H](CC[C@]3(C)[C@@H]([C@H](C)CCNC(=O)NS(=O)(=O)c4ccc(C(C)(C)CO)cc4)CC[C@@H]23)[C@@]2(C)CC[C@@H](O)C[C@@H]12` [Example 69], for which the “Efficacy (%)” value is reported as 490% and the pEC50 was over 7.00.

Regarding `CC[C@H]1[C@@H](O)[C@@H]2[C@H](CC[C@]3(C)[C@@H]([C@H](C)CNC(=O)NS(=O)(=O)c4ccccc4)CC[C@@H]23)[C@@]2(C)CC[C@@H](O)C[C@@H]12` [Example 31], the “Efficacy (%)” value was found to be 305% and the negative logarithm of the EC50 (pEC50) was 6.00 to 7.00.

For `CC[C@H]1[C@@H](O)[C@@H]2[C@H](CC[C@]3(C)[C@@H]([C@H](C)CCNC(=O)NS(=O)(=O)c4ccc(C5CCCCC5)cc4)CC[C@@H]23)[C@@]2(C)CC[C@@H](O)C[C@@H]12` [Example 59], the “Efficacy (%)” value is on record as 344% and the pEC50 is 6.00 to 7.00.

As to `CC[C@H]1[C@@H](O)[C@@H]2[C@H](CC[C@]3(C)[C@@H]([C@H](C)CCNC(=O)NS(=O)(=O)c4cnn(CC)c4)CC[C@@H]23)[C@@]2(C)CC[C@@H](O)C[C@@H]12` [Example 109], the “Efficacy (%)” value was 219% and the negative-log EC50 (pEC50) is 6.00 to 7.00.

As to `CC[C@H]1[C@@H](O)[C@@H]2[C@H](CC[C@]3(C)[C@@H]([C@H](C)CCNC(=O)NS(=O)(=O)c4ccc(-c5ccno5)cc4C)CC[C@@H]23)[C@@]2(C)CC[C@@H](O)C[C@@H]12` [Example 72], the “Efficacy (%)” value was found to be 384% and the negative logarithm of the EC50 (pEC50) is 6.00 to 7.00.

As to `CC[C@H]1[C@@H](O)[C@@H]2[C@H](CC[C@]3(C)[C@@H]([C@H](C)CCNC(=O)NS(=O)(=O)C(C)(C)CO)CC[C@@H]23)[C@@]2(C)CC[C@@H](O)C[C@@H]12` [Example 122], the “Efficacy (%)” value is listed as 121% and the negative logarithm of the EC50 (pEC50) was 5.00 to 6.00.

Take `CC[C@H]1[C@@H](O)[C@@H]2[C@H](CC[C@]3(C)[C@@H]([C@H](C)CCNC(=O)NS(=O)(=O)c4cccc5ncccc45)CC[C@@H]23)[C@@]2(C)CC[C@@H](O)C[C@@H]12` [Example 107]: the “Efficacy (%)” value came to 311% and the pEC50 was 6.00 to 7.00.

For `CC[C@H]1[C@@H](O)[C@@H]2[C@H](CC[C@]3(C)[C@@H]([C@H](C)CCNC(=O)NS(=O)(=O)c4ccc(C)cc4)CC[C@@H]23)[C@@]2(C)CC[C@@H](O)C[C@@H]12` [Example 93], the “Efficacy (%)” value turned out to be 443% and the pEC50 is over 7.00.

`CC[C@H]1[C@@H](O)[C@@H]2[C@H](CC[C@]3(C)[C@@H]([C@H](C)CCNC(=O)NS(=O)(=O)N4CCCCC4)CC[C@@H]23)[C@@]2(C)CC[C@@H](O)C[C@@H]12` [Example 39]: the “Efficacy (%)” value was determined as 379% and the pEC50 was over 7.00.

With `CC[C@H]1[C@@H](O)[C@@H]2[C@H](CC[C@]3(C)[C@@H]([C@H](C)CCNC(=O)NS(=O)(=O)N4CC(C)C(C)C4)CC[C@@H]23)[C@@]2(C)CC[C@@H](O)C[C@@H]12` (some centres unmarked) [Example 99], the “Efficacy (%)” value came to 266% and the pEC50 was over 7.00.

With `CC[C@H]1[C@@H](O)[C@@H]2[C@H](CC[C@]3(C)[C@@H]([C@H](C)CCNC(=O)NS(=O)(=O)c4cccc(C(C)(C)C)c4)CC[C@@H]23)[C@@]2(C)CC[C@@H](O)C[C@@H]12` [Example 53], the “Efficacy (%)” value was 263% and the negative logarithm of the EC50 (pEC50) is over 7.00.

In the case of `CC[C@H]1[C@@H](O)[C@@H]2[C@H](CC[C@]3(C)[C@@H]([C@H](C)CCNC(=O)NS(=O)(=O)c4cnccn4)CC[C@@H]23)[C@@]2(C)CC[C@@H](O)C[C@@H]12` [Example 64], the “Efficacy (%)” value is on record as 334% and the pEC50 was 5.00 to 6.00.

Consider `CC[C@H]1[C@@H](O)[C@@H]2[C@H](CC[C@]3(C)[C@@H]([C@H](C)CCNC(=O)NS(=O)(=O)N4CC5CC5C4)CC[C@@H]23)[C@@]2(C)CC[C@@H](O)C[C@@H]12` (some centres unmarked) [Example 68], for which the “Efficacy (%)” value was 458% and the negative-log EC50 (pEC50) was over 7.00.

As to `CC[C@H]1[C@@H](O)[C@@H]2[C@H](CC[C@]3(C)[C@@H]([C@H](C)CCNC(=O)NS(=O)(=O)c4ccc(-c5ccccc5)cc4)CC[C@@H]23)[C@@]2(C)CC[C@@H](O)C[C@@H]12` [Example 54], the “Efficacy (%)” value was 273% and the pEC50 was over 7.00.

As to `CC[C@H]1[C@@H](O)[C@@H]2[C@H](CC[C@]3(C)[C@@H]([C@H](C)CCCCNS(=O)(=O)c4ccccc4)CC[C@@H]23)[C@@]2(C)CC[C@@H](O)C[C@@H]12` [Example 137], the “Efficacy (%)” value was 105% and the negative logarithm of the EC50 (pEC50) is 5.00 to 6.00.

Take `CC[C@H]1[C@@H](O)[C@@H]2[C@H](CC[C@]3(C)[C@@H]([C@H](C)CCNC(=O)NS(=O)(=O)C(F)(F)F)CC[C@@H]23)[C@@]2(C)CC[C@@H](O)C[C@@H]12` [Example 104]: the “Efficacy (%)” value is 298% and the pEC50 is 5.00 to 6.00.

As to `CC[C@H]1[C@@H](O)[C@@H]2[C@H](CC[C@]3(C)[C@@H]([C@H](C)CCNC(=O)NS(=O)(=O)C4CC4)CC[C@@H]23)[C@@]2(C)CC[C@@H](O)C[C@@H]12` [Example 5], the “Efficacy (%)” value is listed as 369% and the negative logarithm of the EC50 (pEC50) is 6.00 to 7.00.

With `CC[C@H]1[C@@H](O)[C@@H]2[C@H](CC[C@]3(C)[C@@H]([C@H](C)CCNC(=O)NS(=O)(=O)c4ccccc4)CC[C@@H]23)[C@@]2(C)CC[C@@H](O)C[C@@H]12` [Example 4], the “Efficacy (%)” value was found to be 342% and the pEC50 was over 7.00.

Turning to `CC[C@H]1[C@@H](O)[C@@H]2[C@H](CC[C@]3(C)[C@@H]([C@H](C)CCNC(=O)NS(=O)(=O)C4CC5CCC4C5)CC[C@@H]23)[C@@]2(C)CC[C@@H](O)C[C@@H]12` (some centres unmarked) [Example 76], the “Efficacy (%)” value is listed as 290% and the pEC50 was over 7.00.

For the molecule `CC[C@H]1[C@@H](O)[C@@H]2[C@H](CC[C@]3(C)[C@@H]([C@H](C)CCNC(=O)NS(=O)(=O)c4ccc(C(=O)O)cc4)CC[C@@H]23)[C@@]2(C)CC[C@@H](O)C[C@@H]12` [Example 120], the “Efficacy (%)” value was 198% and the pEC50 was 5.00 to 6.00.

`CC[C@H]1[C@@H](O)[C@@H]2[C@H](CC[C@]3(C)[C@@H]([C@H](C)CCNC(=O)NS(=O)(=O)N4CCC5(CC4)COC5)CC[C@@H]23)[C@@]2(C)CC[C@@H](O)C[C@@H]12` [Example 74]: the “Efficacy (%)” value was found to be 242% and the negative logarithm of the EC50 (pEC50) is 6.00 to 7.00.

Consider `CC[C@H]1[C@@H](O)[C@@H]2[C@H](CC[C@]3(C)[C@@H]([C@H](C)CCNC(=O)NS(=O)(=O)Nc4ccc(C(C)(C)C)cc4)CC[C@@H]23)[C@@]2(C)CC[C@@H](O)C[C@@H]12` [Example 105], for which the “Efficacy (%)” value turned out to be 322% and the pEC50 is 6.00 to 7.00.

As to `CC[C@H]1[C@@H](O)[C@@H]2[C@H](CC[C@]3(C)[C@@H]([C@H](C)CCCNC(=O)NS(=O)(=O)C4CC4)CC[C@@H]23)[C@@]2(C)CC[C@@H](O)C[C@@H]12` [Example 20], the “Efficacy (%)” value worked out at 334% and the pEC50 was 6.00 to 7.00.

Consider `CC[C@H]1[C@@H](O)[C@@H]2[C@H](CC[C@]3(C)[C@@H]([C@H](C)CCNC(=O)NS(=O)(=O)N4CCC(C)(C)CC4)CC[C@@H]23)[C@@]2(C)CC[C@@H](O)C[C@@H]12` [Example 65], for which the “Efficacy (%)” value is reported as 498% and the pEC50 is over 7.00.

As for `CC[C@H]1[C@@H](O)[C@@H]2[C@H](CC[C@]3(C)[C@@H]([C@H](C)CCCNS(=O)(=O)c4ccccc4)CC[C@@H]23)[C@@]2(C)CC[C@@H](O)C[C@@H]12` [Example 10], the “Efficacy (%)” value was found to be 168% and the negative-log EC50 (pEC50) was 6.00 to 7.00.
